The target in data set [1] is T1, human CB2 (Homo sapiens, UniProt P34972). Description: On-cell western for receptor internalization, HEK hCB2. The conditions noted are these: read-out: Internalization Emax. In kind it is cell-based. More on the design: expressed in transfected cells.
Data set [2] has as its target T2, mouse CB2 receptors (Mus musculus, UniProt P47936).
T2 construct: expressed in transfected cells
As to the kind of experiment: Phosphorylated ERK1/2 detection, HEK mCB2. It is filed as cell-based.

Data set [3] concerns the target T1, human CB2. Description: Phosphorylated ERK1/2 detection, HEK hCB2. It is filed as cell-based. Details: expressed in transfected cells.
The target in data set [4] is T1, human CB2. As to the kind of experiment: Forskolin-stimulated cAMP accumulation (cyclase), HEK hCB2. In kind it is cell-based. Details: expressed in transfected cells; time of inhibition of forskolin-stimulated cAMP accumulation: dose or concentration left out as unconfirmed. On the technique in general: Changes in cAMP serve as a functional read-out for many G protein-coupled receptors.

The target in data set [5] is T2, mouse CB2 receptors. As to the kind of experiment: On-cell western for receptor internalization, HEK mCB2. In kind it is cell-based.
In data set [6] the target is T2, mouse CB2 receptors. As to the kind of experiment: Arrestin recruitment (PathHunter CHO K1CNR2, enzyme complementation). It is filed as cell-based. In general terms: Recruitment of arrestin is a read-out of receptor activation apart from second messengers.
Data set [7] deals with T2, mouse CB2 receptors. As to the kind of experiment: Forskolin-stimulated cAMP accumulation (cyclase), HEK mCB2. In kind it is cell-based.
Data set [8] concerns morphine analgesia and antinociceptive tolerance. The note with it: rats, with morphine; cited from earlier work.
Data set [9] has as its target T2, mouse CB2 receptors. As to the kind of experiment: Myo-inositol phosphate-1 (IP1) accumulation, HEK mCB2. In kind it is cell-based. The conditions noted are these: via mouse CB2.
Data set [10] relates to paclitaxel-induced cold allodynia. Description: Paclitaxel-induced cold allodynia (acetone). It is filed as in vivo, mouse. The conditions noted are these: 10 mg/kg per day i.p.×12 days. On the procedure: (§1) In all studies, the experimenter was blinded to the treatment condition, and mice were randomly assigned to experimental conditions. Paclitaxel (4 mg/kg i.p.) was administered four times on alternate days (cumulative dose, 16 mg/kg i.p.) to induce neuropathic pain as described previously by our group (Deng et al., 2015). Control mice received an equal volume of cremophor-vehicle. Development of paclitaxel-induced allodynia was assessed on day 0, 4, 7, 11, and 14.
(§2) Effects of pharmacologic manipulations were assessed at 30 minutes after drug administration during the maintenance phase of paclitaxel-induced neuropathy (i.e., beginning day 18-20 after initial paclitaxel injection).
(§3) In experiments 2 and 3, pharmacologic manipulations were performed once daily for 12 consecutive days in each of the two phases of chronic treatment. Four days separated phase 1 and phase 2 chronic dosing in all studies comprising two phases of chronic dosing. Experiments 2 and 3 were performed concurrently using overlapping cohorts that were tested with a single vehicle (phase 1), vehicle (phase 2) group.
(§4) We then assessed the antiallodynic efficacy of chronic systemic administration of vehicle or morphine (10 mg/kg per day i.p.×12 days) administered during phase 2 in the same animals. Responsiveness to mechanical and cold stimulation was evaluated on treatment days 1, 4, 8, and 12 during phase 1 and on treatment days 16, 19, 23, and 27 during phase 2 (i.e., phase 2 started on day 16).
(§5) In experiment 4, we evaluated the impact of coadministration of morphine (10 mg/kg i.p.×12 days) with a submaximal dose of LY 2828360 (0.1 mg/kg per day i.p.×12 days) in WT and CB2 KO mice.
Response time (seconds) spent attending to (i.e., elevating, licking, biting, or shaking) the paw stimulated with acetone (Sigma-Aldrich) was measured in triplicate for each paw to assess cold allodynia as previously published. An acetone bubble (approximately 5 to 6 p.1) formed at the end of a blunt 1-ml syringe hub was gently applied to the plantar surface of the hind paw. Care was taken not to apply mechanical stimulation to the hind paw with the syringe itself. The total time the animal spent attending to the acetone-stimulated paw (i.e., elevation, shaking, or licking) was recorded over 1 minute after acetone application. Acetone was applied three times to each paw with a 3-minute interval between applications. Values for each animal were calculated as the mean of six determinations of acetone responsiveness derived from each mouse.

For data set [11], the system named is paclitaxel-induced mechanical allodynia. As to the kind of experiment: Paclitaxel-induced mechanical allodynia (electronic von Frey). In kind it is in vivo, mouse. The conditions noted are these: 10 mg/kg per day i.p.×12 days. The method, then: as §1, §2, §3, §4, §5
Paw withdrawal thresholds (grams) to mechanical stimulation were measured in duplicate for each paw using an electronic von Frey anesthesiometer supplied with a 90-g probe (model Alemo 2390-5; IITC, Woodland Hills, Calif.) as described previously. Mice were placed on an elevated metal mesh table and allowed to habituate under individual, inverted plastic cages to the testing platform for at least 20 minutes until exploratory behavior had ceased. Alter the habituation period, a force was applied to the midplantar region of the hind paw with a semiflexible tip connected to the anesthesiometer. Mechanical stimulation was terminated when the animal withdrew its paw, and the value of the applied force was recorded in grams. Mechanical paw withdrawal thresholds were obtained in duplicate for each paw and are reported as the mean of duplicate determinations from each animal, averaged across animals, for each group.

Data set [12] relates to naloxone-precipitated opioid withdrawal. Description: Naloxone-precipitated opioid withdrawal in paclitaxel-treated mice. In kind it is in vivo, mouse. The method, then: Alter the last injection of morphine (on day 28 for two-phase treatments, on day 13 for coadministration treatment), we challenged WT or CB2KO mice from experiments 2, 3, and 4 with vehicle, followed 30 minutes later by naloxone (5 mg/kg i.p.) to precipitate opioid receptor-mediated withdrawal. Mice were video-recorded for subsequent scoring of withdrawal-like behaviors for a 30-minute interval after challenge with vehicle or naloxone.
Mice were video-taped, and the number of jumps was scored in 5-minute intervals for a total observation period of 30 minutes after challenge with either saline or naloxone (5 mg/kg i.p.).

[13] abbreviates: WT mice, days 16-27, 10 mg/kg/day.

Each structure is given as a SMILES string. Entries after “also recorded” stand apart in the source; their conditions may differ.

As a reminder, the EC50 is the midpoint of the concentration-response curve.

T1 sequence (P34972 whole entry): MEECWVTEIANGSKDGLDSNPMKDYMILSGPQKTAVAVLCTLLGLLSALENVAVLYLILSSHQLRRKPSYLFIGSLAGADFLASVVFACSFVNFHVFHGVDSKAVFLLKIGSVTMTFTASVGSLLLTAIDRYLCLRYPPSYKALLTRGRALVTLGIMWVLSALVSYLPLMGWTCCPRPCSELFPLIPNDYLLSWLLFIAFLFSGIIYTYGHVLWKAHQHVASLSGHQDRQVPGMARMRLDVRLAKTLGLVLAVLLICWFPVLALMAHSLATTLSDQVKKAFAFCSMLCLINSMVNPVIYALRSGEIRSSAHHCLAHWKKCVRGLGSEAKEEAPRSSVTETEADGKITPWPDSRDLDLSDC
T2 sequence (P47936 whole entry): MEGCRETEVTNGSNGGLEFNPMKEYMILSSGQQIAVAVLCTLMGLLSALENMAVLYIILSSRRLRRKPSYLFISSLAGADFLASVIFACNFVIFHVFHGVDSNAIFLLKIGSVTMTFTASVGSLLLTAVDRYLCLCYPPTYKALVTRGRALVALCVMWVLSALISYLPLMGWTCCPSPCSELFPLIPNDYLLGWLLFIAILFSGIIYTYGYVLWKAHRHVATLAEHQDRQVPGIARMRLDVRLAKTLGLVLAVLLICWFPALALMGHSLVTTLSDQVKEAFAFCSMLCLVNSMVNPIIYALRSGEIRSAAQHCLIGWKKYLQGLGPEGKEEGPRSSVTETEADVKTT

In the case of `CCCCCCC(C)(C)c1ccc([C@@H]2C[C@H](O)CC[C@H]2CCCO)c(O)c1` (relative stereo) [CP55940, reference compound], the Emax in data set [1] was found to be 33.9%; in data set [2] (read-out: pERK1/2 Emax, mouse CB2, 05 mins incubation) it was 136%; in data set [2] (read-out: pERK1/2 Emax, mouse CB2, 20 mins incubation) it was 20.3%; in data set [3] (read-out: pERK1/2 Emax, human CB2, 05 mins incubation) it was 95.7%; in data set [3] (read-out: pERK1/2 Emax, human CB2, 30 mins incubation), 49.4%; in [4] (read-out: Cyclase Emax) it was 59.6%. The Emax turned out to be 49.1% in [5] (read-out: Internalization Emax), 125% in [6] (read-out: Arrestin Emax) and 52.8% in data set [7] (read-out: Cyclase Emax). For the same compound, the “ERK1/2 phosphorylation time course” value in [2] (mCB2, 1 μM) is “increased phosphorylated ERK1/2 at 5-, 10-, 30-, and 40-minute time points”; in data set [3] (hCB2, 1 pM), “efficaciously increased ERK1/2 phosphorylation after 5 minutes, 10 minutes, and 30 minutes”. For the same compound, the “ERK1/2 phosphorylation after PTX treatment” value in [2] (mCB2, 1 μM, PTX) is reported as “abolished the CP55940-mediated phosphorylation of ERK1/2 at the 5-minute time point, but it was retained at the 40-minute time point”; in data set [3] (hCB2, 1 pM, PTX) it was “retained”. In addition, the “ERK1/2 phosphorylation, concentration response” value is on record as “concentration dependency increased ERK1/2 phosphorylation” in data set [2] (mCB2, 5 minutes) and “decreased ERK1/2 phosphorylation” in [2] (mCB2, 20 minutes). Moreover, the “effect on ERK1/2 phosphorylation in presence of SR144528” value in data set [2] (mCB2, 20 minutes, SR144528 1 μM) is “blocked”. The 50% effective concentration (EC50) amounted to 10.5 nM in data set [2] (pERK1/2 EC50, mouse CB2, 05 mins incubation); 1.5 nM in data set [2] (pERK1/2 EC50, mouse CB2, 20 mins incubation); 7.4 nM in data set [5]; 2.3 nM in [6]; 6.6 nM in data set [7]. For the same compound, the “stimulated phosphorylation of ERK1/2 in presence of SR144528” value in data set [3] (hCB2, SR144528 (1 pM)) was “completely blocked”. Besides, in data set [4] (HEK hCB2), the “cAMP levels, compound alone (no forskolin)” value is reported as “alone did not change the cAMP levels”. Also, the “duration of decrease in cAMP” value in data set [4] (HEK hCB2) was “up to 10 minutes”. The “inhibition of forskolin-induced cAMP levels, time course” value in [4] (HEK hCB2, 1 μM final concentration) was “produced early inhibition of forskolin-induced cAMP levels at 5 minutes”. Also, the “inhibition of forskolin-stimulated cAMP after PTX pretreatment” value in [4] (HEK hCB2, 1 μM final concentration, PTX) is given as “blocked the inhibition of forskolin-stimulated cAMP”. Further, the “inhibition of forskolin-stimulated cAMP accumulation” value in data set [4] (hCB2, 5 minutes of treatment) is “potent and efficacious”. Moreover, the “time of inhibition of forskolin-stimulated cAMP accumulation” value in data set [4] (hCB2, time course) was determined as 5 min. For the same compound, the “inhibition of cAMP accumulation after PTX pretreatment” value in [4] (hCB2, time course, PTX) is on record as “abolished this effect”. The receptor internalization entry in [5] (HEK mCB2) is listed as “concentration dependently internalized the mCB2”. Besides, in data set [6] (CHO cells expressing mCB2, 90-minute drug incubation), the arrestin recruitment result was “recruited arrestin in a concentration-dependent manner”. For the same compound, the “forskolin-induced cAMP levels” value in data set [7] (HEK mCB2, 1 μM final concentration, 5 minutes) is “attenuated forskolin-induced cAMP levels; also recorded: stronger inhibitory effect than AM1710”. Also, the “cAMP levels in the absence of forskolin” value in [7] (HEK mCB2, compound alone) is listed as “alone did not change cAMP levels”. The “forskolin-stimulated cAMP after PTX treatment” value in data set [7] (mCB2, 1 μM, PTX 300 ng/ml overnight) is on record as “modestly increased cAMP accumulation at 5 minutes; also recorded: abolished the decrease in forskolin-stimulated cAMP”. For the same compound, the “time of efficacious inhibition of forskolin-stimulated adenylyl cyclase” value in data set [7] (mCB2, 1 μM, time course) was around 5 min. Also, the “inhibition of forskolin-stimulated cAMP accumulation, concentration response” value in data set [7] (mCB2, 5 minutes) is “potently and efficaciously inhibited cAMP accumulation”.

As for `CCCCCOc1c(OC)ccc2cc(C(=O)NCc3ccc4c(c3)OCO4)c(=O)[nH]c12` [JTE907], in [8], the “morphine analgesia and morphine antinociceptive tolerance” value is “decreased morphine analgesia and attenuated morphine antinociceptive tolerance”.

In the case of `Cc1c(C(=O)c2cccc3ccccc23)c2cccc3c2n1[C@H](CN1CCOCC1)CO3` [WIN55212-2, reference compound], the IP1 accumulation entry in data set [9] is “increased IP1 accumulation”.

Take `CN1CC[C@]23c4c5ccc(O)c4O[C@H]2[C@@H](O)C=C[C@H]3[C@H]1C5` [morphine, reference compound]: the “cold allodynia, chronic phase 1 morphine” value in [10] (CB2KO mice) was “completely absent on day 8 and day 12”; in [10] (WT mice, days 4, 8, 12), “tolerance developed to the antiallodynic effects of morphine”. Also, in data set [10] (setting [13]), the “cold allodynia, phase 2 morphine after phase 1 vehicle” value was “only suppressed paclitaxel-induced mechanical and cold allodynia on day 16; also recorded: no longer efficacious”. In addition, the “mechanical allodynia, chronic phase 1 morphine” value in data set [11] (CB2KO mice) is “completely absent on day 8 and day 12”; in data set [11] (WT mice, days 4, 8, 12), “tolerance developed to the antiallodynic effects of morphine”. Besides, the “mechanical allodynia, phase 2 morphine after phase 1 vehicle” value in data set [11] (setting [13]) was “only suppressed paclitaxel-induced mechanical and cold allodynia on day 16; also recorded: no longer efficacious”. Besides, the “naloxone-precipitated jumping, Veh (1)-Mor (2) vs Veh (1)-Veh (2)” value in data set [12] (paclitaxel-treated CB2KO mice) is “precipitated jumping”. Besides, the “number of naloxone-precipitated jumps, vehicle (1)-morphine (2) vs vehicle (1)-vehicle (2)” value in data set [12] (paclitaxel-treated WT mice, morphine 10 mg/kg per day×12 days, naloxone 5 mg/kg i.p.) is “exhibited a greater number of jumps”. Also, in data set [12] (paclitaxel-treated WT mice, morphine in phase 1), the “naloxone-precipitated withdrawal, Mor (1)-LY (2) vs Veh (1)-Veh (2)” value is listed as “did not precipitate withdrawal”.

The values are drawn from patent US20190314379A1, “METHODS OF USING CANNABINOID CB2 RECEPTOR AGONIST COMPOSITIONS TO SUPPRESS AND PREVENT OPIOID TOLERANCE AND WITHDRAWAL IN A SUBJECT” (Indiana University Research and Technology Corporation, priority 2018, published 2019).
